This is an account of results in paper PMC8704707 (Pharmaceuticals, 2021).

Molecules are shown by their SMILES. ≈ marks a conversion by molar mass, not a printed value. Where “and” joins values, the source holds several entries; their conditions need not be identical. Identical values can stand only once. Like-named read-outs stand apart in the source and are kept apart here.

For data set [1], the system named is four Gram-positive and four Gram-negative bacterial strains. As to the kind of experiment: Antibacterial microdilution broth method, whole panel. Particulars: read-out: MIC, all bacterial strains tested. The format is cell-based. (In general: In broth dilution the organism is exposed to a series of concentrations in liquid medium.)
In data set [2] the target is AChE from electric eel (EeAChE) (Electrophorus electricus, UniProt O42275). As to the kind of experiment: biochemical. The format is biochemical.
Data set [3] concerns the target BuChE from equine serum (EqBuChE) (Equus caballus, UniProt P81908). As to the kind of experiment: biochemical. The conditions noted are these: mean ± SD, n = three independent experiments; BTCh 40 µM; read-out: IC50 BuChE.
Data set [4] deals with methicillin-resistant Staphylococcus aureus ATCC 43300. As to the kind of experiment: Antibacterial microdilution broth method (EUCAST). The format is cell-based. Particulars: ATCC 43300 / MRSA.
The test system of data set [5] is Escherichia coli ATCC 25922. As to the kind of experiment: Antibacterial microdilution broth method (EUCAST). It counts as cell-based.
The subject of data set [6] is Staphylococcus epidermidis ATCC 12228. As to the kind of experiment: Antibacterial microdilution broth method (EUCAST). It counts as cell-based.
For data set [7], the system named is eight human pathogenic fungi. As to the kind of experiment: Antifungal microdilution broth method, whole panel. The format is cell-based. The conditions noted are these: not reported in Table 2, read-out: MIC, all fungal strains tested.
Data set [8] concerns Acinetobacter baumannii ATCC 19606. As to the kind of experiment: Antibacterial microdilution broth method (EUCAST). It counts as cell-based.
Data set [9] deals with Enterococcus faecalis ATCC 29212. As to the kind of experiment: Antibacterial microdilution broth method (EUCAST). It counts as cell-based.
For data set [10], the system named is Staphylococcus aureus ATCC 29213. As to the kind of experiment: Antibacterial microdilution broth method (EUCAST). It counts as cell-based.
In data set [11] the test system is Klebsiella pneumoniae ATCC 10031. Particulars: for MIC KP 24 h: 24 h incubation; for MIC KP 48 h: 48 h incubation.
Data set [12] has as its system Pseudomonas aeruginosa ATCC 27853. As to the kind of experiment: Antibacterial microdilution broth method (EUCAST). The format is cell-based.
The subject of another data set is Candida krusei ATCC 6258. As to the kind of experiment: microbe, parasite or virus in culture. The format is cell-based. Particulars: Pichia kudriavzevii.
The subject of data set [13] is Candida parapsilosis ATCC 22019. As to the kind of experiment: microbe, parasite or virus in culture. It counts as cell-based. Particulars: Lodderomyces parapsilosis.
Data set [14] deals with Candida albicans ATCC 24443. As to the kind of experiment: microbe, parasite or virus in culture. The format is cell-based.
Data set [15] relates to Candida tropicalis ATCC 750. As to the kind of experiment: microbe, parasite or virus in culture. The format is cell-based.
Data set [16] concerns Trichophyton interdigitale ATCC 9533. As to the kind of experiment: microbe, parasite or virus in culture. The format is cell-based.
Where [17] appears, read: mean ± SD, n = three independent experiments, ATCh 40 µM, read-out: IC50 AChE.
[18] abbreviates: ATCC25922, 24 h, read-out: MIC EC 24 h.
Where [19] appears, read: ATCC25922, 48 h, read-out: MIC EC 48 h.
[20] abbreviates: ATCC12228, 24 h, read-out: MIC SE 24 h.
[21] abbreviates: ATCC12228, 48 h, read-out: MIC SE 48 h.
[22] abbreviates: ATCC19606, 24 h, read-out: MIC ACI 24 h.
[23] abbreviates: ATCC19606, 48 h, read-out: MIC ACI 48 h.
[24] abbreviates: ATCC29212, 24 h, read-out: MIC EF 24 h.
Where [25] appears, read: ATCC29212, 48 h, read-out: MIC EF 48 h.
Setting [26] is: ATCC29213, 24 h, read-out: MIC SA 24 h.
[27] abbreviates: ATCC29213, 48 h, read-out: MIC SA 48 h.
The mark [28] stands for this setting: ATCC27853, 24 h, read-out: MIC PA 24 h.
The mark [29] stands for this setting: ATCC27853, 48 h, read-out: MIC PA 48 h.

Chain of AChE from electric eel (EeAChE) (O42275 24-633): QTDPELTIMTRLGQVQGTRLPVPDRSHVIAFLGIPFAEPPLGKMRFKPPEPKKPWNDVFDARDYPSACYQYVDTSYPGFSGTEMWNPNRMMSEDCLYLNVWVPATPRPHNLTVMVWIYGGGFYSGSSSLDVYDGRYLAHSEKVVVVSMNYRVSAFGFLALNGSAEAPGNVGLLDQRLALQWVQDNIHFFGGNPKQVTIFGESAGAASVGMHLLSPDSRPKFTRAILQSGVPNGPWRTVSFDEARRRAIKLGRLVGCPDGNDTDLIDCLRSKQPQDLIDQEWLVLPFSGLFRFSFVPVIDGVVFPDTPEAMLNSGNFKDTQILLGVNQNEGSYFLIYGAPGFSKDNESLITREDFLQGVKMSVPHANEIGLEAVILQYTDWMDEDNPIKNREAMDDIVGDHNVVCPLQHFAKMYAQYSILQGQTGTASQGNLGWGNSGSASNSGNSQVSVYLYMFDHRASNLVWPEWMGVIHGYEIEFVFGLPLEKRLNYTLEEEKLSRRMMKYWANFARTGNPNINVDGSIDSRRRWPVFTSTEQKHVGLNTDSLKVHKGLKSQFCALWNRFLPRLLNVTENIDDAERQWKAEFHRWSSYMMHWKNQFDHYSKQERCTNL
Chain of BuChE from equine serum (EqBuChE) (P81908 whole entry): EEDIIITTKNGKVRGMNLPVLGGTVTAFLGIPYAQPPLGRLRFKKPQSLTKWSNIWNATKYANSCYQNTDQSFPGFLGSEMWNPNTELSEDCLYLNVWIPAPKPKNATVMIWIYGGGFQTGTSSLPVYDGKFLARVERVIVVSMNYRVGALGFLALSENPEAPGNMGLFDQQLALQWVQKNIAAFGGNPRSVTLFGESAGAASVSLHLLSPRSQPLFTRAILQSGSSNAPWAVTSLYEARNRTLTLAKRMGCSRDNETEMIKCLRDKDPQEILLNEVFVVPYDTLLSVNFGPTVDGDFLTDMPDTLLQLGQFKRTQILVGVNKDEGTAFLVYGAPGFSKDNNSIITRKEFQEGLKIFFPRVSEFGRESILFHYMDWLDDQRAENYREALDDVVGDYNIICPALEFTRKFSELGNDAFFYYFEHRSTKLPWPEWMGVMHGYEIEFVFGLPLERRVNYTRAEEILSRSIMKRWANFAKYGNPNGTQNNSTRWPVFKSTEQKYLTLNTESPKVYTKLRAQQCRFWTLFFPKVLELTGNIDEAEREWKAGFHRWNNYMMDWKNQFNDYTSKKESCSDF

What is called IC50 is the concentration needed to halve the response being measured. In the case of `[H]/N=C(\N)NN=Cc1ccc(Cl)cc1` [Compound 1d, (E)-2-(4-Chlorobenzylidene)hydrazine-1-carboximidamide], in data set [1], the MIC was no less than 500 µM. In addition, in data set [2], it took 45.2 ± 1.6 µM to reach half-maximal inhibition (IC50) and the “Selectivity AChE/BuChE” value is reported as 3.25. Further, the IC50 in data set [3] is < 20 µM and 13.9 µM.
For the molecule `[H]/N=C(\N)NN=Cc1cccc(Cl)c1O` [Compound 1e, (E)-2-(3-Chloro-2-hydroxybenzylidene)hydrazine-1-carboximidamide], the MIC in data set [1] was no less than 500 µM. Also, the IC50 was 46.2 ± 2.26 µM in [2] (setting [17]); < 20 µM and 5.57 µM in data set [3].
As for `[H]/N=C(\N)NN=Cc1cc(Cl)cc(Cl)c1O` [Compound 1j, (E)-2-(3,5-Dichloro-2-hydroxybenzylidene)hydrazine-1-carboximidamide], the MIC in [4] (24 h, read-out: MIC MRSA 24 h) was determined as 250 µM (≈ 61.8 µg/mL); in [4] (48 h, read-out: MIC MRSA 48 h), 250 µM (≈ 61.8 µg/mL); in data set [5] (setting [18]), 500 µM (≈ 124 µg/mL); in [5] (setting [19]), 500 µM (≈ 124 µg/mL); in data set [6] (setting [20]) it was 250 µM (≈ 61.8 µg/mL); in data set [6] (setting [21]), 250 µM (≈ 61.8 µg/mL). Further, the MIC in data set [7] was no less than 500 µM; in [8] (setting [22]) it was 500 µM (≈ 124 µg/mL); in data set [8] (setting [23]), 500 µM (≈ 124 µg/mL); in data set [9] (setting [24]) it was 250 µM (≈ 61.8 µg/mL); in [9] (setting [25]), 250 µM (≈ 61.8 µg/mL); in data set [10] (setting [26]), 250 µM (≈ 61.8 µg/mL). Besides, the MIC in data set [10] (setting [27]), in data set [12] (setting [28]) and in [12] (setting [29]) was 250 µM (≈ 61.8 µg/mL) throughout. Moreover, in data set [2], the “Selectivity AChE/BuChE” value is listed as 0.66. Besides, the IC50 was determined as 40.8 ± 0.8 µM in [2] (setting [17]) and 61.7 ± 4.33 µM in [3]. In addition, in [11], the “MIC KP 24 h” value turned out to be 500 µM (≈ 124 µg/mL). The “MIC KP 48 h” value in [11] was 500 µM (≈ 124 µg/mL).
For `[H]/N=C(\N)NN=Cc1cc(I)c(O)c(I)c1` [Compound 2b, (E)-2-(4-Hydroxy-3,5-diiodobenzylidene)hydrazine-1-carboximidamide], the MIC in data set [4] (24 h, read-out: MIC MRSA 24 h) was 500 µM (≈ 215 µg/mL); in [4] (48 h, read-out: MIC MRSA 48 h), 500 µM (≈ 215 µg/mL); in [5] (setting [18]) it was 500 µM (≈ 215 µg/mL); in data set [5] (setting [19]), 500 µM (≈ 215 µg/mL); in data set [6] (setting [20]), 250 µM (≈ 107 µg/mL); in [6] (setting [21]) it was 500 µM (≈ 215 µg/mL). For the same molecule, the MIC in data set [7] was no less than 500 µM; in [8] (setting [22]), greater than 500 µM; in data set [8] (setting [23]) it was greater than 500 µM; in data set [9] (setting [24]), 500 µM (≈ 215 µg/mL); in data set [9] (setting [25]), 500 µM (≈ 215 µg/mL); in [10] (setting [26]) it was 500 µM (≈ 215 µg/mL). The MIC in [10] (setting [27]) is 500 µM (≈ 215 µg/mL); in [12] (setting [28]) it was greater than 500 µM; in [12] (setting [29]), greater than 500 µM. For the same molecule, the “Selectivity AChE/BuChE” value in data set [2] stood at 0.87. In addition, the results for the IC50 in [2] (setting [17]) and in data set [3] were 40.3 ± 0.85 µM and 46.28 ± 0.29 µM, respectively. In data set [11], the “MIC KP 24 h” value worked out at 250 µM (≈ 107 µg/mL). The “MIC KP 48 h” value in data set [11] was 250 µM (≈ 107 µg/mL).
In the case of `N=C(N)NNCc1cc(I)cc(I)c1O` [Compound 2d, 2-(2-Hydroxy-3,5-diiodobenzyl)hydrazine-1-carboximidamide], the MIC in data set [1] was no less than 500 µM; with Candida krusei ATCC 6258 (ATCC6258, 24 h, read-out: MIC CK 24 h), greater than 125 µM; in the data set with Candida krusei ATCC 6258 (ATCC6258, 48 h, read-out: MIC CK 48 h) it was greater than 125 µM; in data set [13] (ATCC22019, 24 h, read-out: MIC CP 24 h), greater than 125 µM; in data set [13] (ATCC22019, 48 h, read-out: MIC CP 48 h), greater than 125 µM; in data set [14] (ATCC24443, 24 h, read-out: MIC CA 24 h) it was greater than 125 µM. The MIC was greater than 125 µM in data set [14] (ATCC24443, 48 h, read-out: MIC CA 48 h); greater than 125 µM in data set [15] (ATCC750, 24 h, read-out: MIC CT 24 h); greater than 125 µM in [15] (ATCC750, 48 h, read-out: MIC CT 48 h); 62.5 µM (≈ 27 µg/mL) in data set [16] (ATCC9533, 72 h, read-out: MIC TI 72 h); 62.5 µM (≈ 27 µg/mL) in data set [16] (ATCC9533, 120 h, read-out: MIC TI 120 h). In data set [2], the “Selectivity AChE/BuChE” value is recorded as 1.10. The results for the IC50 in data set [2] (setting [17]) and in [3] were 45.7 ± 1.7 µM and 41.5 ± 1.45 µM, respectively.
